# Laboratory results taken from ChEMBL document CHEMBL4619804, “Target-Based Identification and Optimization of 5-Indazol-5-yl Pyridones as Toll-like Receptor 7 and 8 Antagonists Using a Biochemical TLR8 Antagonist Competition Assay” (J Med Chem, 2020).
# Target: T1, Toll-like receptor 9 (Homo sapiens, UniProt Q9NR96)
# T1 sequence (Q9NR96 whole entry): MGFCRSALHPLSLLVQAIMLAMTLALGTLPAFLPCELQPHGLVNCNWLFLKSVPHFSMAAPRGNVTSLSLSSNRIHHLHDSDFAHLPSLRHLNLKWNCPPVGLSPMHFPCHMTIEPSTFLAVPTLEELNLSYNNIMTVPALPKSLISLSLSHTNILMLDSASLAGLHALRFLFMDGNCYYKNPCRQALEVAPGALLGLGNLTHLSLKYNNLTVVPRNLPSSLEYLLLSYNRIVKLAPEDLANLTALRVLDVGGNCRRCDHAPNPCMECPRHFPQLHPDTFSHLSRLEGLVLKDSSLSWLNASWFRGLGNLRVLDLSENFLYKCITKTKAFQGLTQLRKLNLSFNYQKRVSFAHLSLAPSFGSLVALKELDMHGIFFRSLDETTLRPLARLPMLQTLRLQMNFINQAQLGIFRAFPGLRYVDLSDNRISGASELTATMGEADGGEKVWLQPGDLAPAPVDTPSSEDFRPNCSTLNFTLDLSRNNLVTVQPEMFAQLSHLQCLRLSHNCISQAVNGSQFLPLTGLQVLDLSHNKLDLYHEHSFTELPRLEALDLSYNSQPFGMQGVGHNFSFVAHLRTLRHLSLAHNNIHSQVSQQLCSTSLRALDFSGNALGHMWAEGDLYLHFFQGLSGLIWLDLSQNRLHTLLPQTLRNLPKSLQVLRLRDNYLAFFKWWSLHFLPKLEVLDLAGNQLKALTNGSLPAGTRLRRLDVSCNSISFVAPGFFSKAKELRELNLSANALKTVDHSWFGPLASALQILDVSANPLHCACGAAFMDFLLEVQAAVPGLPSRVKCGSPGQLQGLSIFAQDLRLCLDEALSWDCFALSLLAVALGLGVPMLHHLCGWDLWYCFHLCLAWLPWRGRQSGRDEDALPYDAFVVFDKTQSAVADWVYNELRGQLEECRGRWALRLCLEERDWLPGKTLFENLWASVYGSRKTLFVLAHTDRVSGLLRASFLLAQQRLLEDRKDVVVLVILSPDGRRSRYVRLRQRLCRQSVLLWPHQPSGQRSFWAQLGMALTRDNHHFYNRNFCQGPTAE
# Assay: Antagonist activity at TLR9 in human whole blood inhibition of DOTAP-ODN2216-induced IFNalpha production preincubated for 30 mins followed by DOTAP-ODN2216 addition and measured after 20 hrs by ELISA
# Type: tissue-based
compound,measurement,value
O=c1ccc(-c2cc(C(F)(F)F)c3nn([C@H]4CCNC[C@@H]4F)cc3c2)c2n1CCC2,IC50,> 10 µM
